Tests used:
[1] = test system: acetaminophen-induced hepatopathy; experiment: Effects of DCE-GS on acetaminophen-induced hepatopathy in rats; assay type: in vivo, SD-strain male rats; details: for LDH (lactate dehydrogenase) / s-GOT / s-GPT / s-TG (serum triglyceride): 1 h before acetaminophen 300 mg/kg i.p., blood at 24 h, mean ± standard error (n = 6 to 8)
Experimental: After 24 hours of fasting, SD-strain male rats weighing 180 g were orally given 200, 400 or 800 mg/kg of S-(α, β-dicarboxyethyl)glutathione (hereinafter referred to as "DCE-GS" for short). A control group was given physiological saline. An hour later, 300 mg/kg acetaminophen was intraperitoneally administered to each rat for causing hepatopathy. Twenty-four hours after acetaminophen administration,blood samples were collected from the rats under pentobarbital anesthesia via the abdominal aorta and subjected to blood biochemistry tests.

blood coagulation = details: Kokai No. 63-8337 and Japanese Patent Applications Nos. 1-79956 and 1-183484; cited from earlier work
platelet aggregation = details: Kokai No. 63-8337 and Japanese Patent Applications Nos. 1-79956 and 1-183484; cited from earlier work
[2] = Kokai No. 63-8337 and Japanese Patent Applications Nos. 1-79956 and 1-183484; cited from earlier work
[3] = 400 mg/kg oral, *p < 0.05 vs saline
[4] = 800 mg/kg oral, *p < 0.05 vs saline

N[C@@H](CCC(=O)N[C@@H](CSC(CC(=O)O)C(=O)O)C(=O)NCC(=O)O)C(=O)O (stereo partly drawn) [DCE-GS, S-(α, β-Dicarboxyethyl)glutathione]
LDH (lactate dehydrogenase) ([1]; 200 mg/kg oral): 6029 ± 485 Wrobrewski units | s-GOT ([1]; 200 mg/kg oral): 1221 ± 179 IU/liter | s-GPT ([1]; 200 mg/kg oral): 499 ± 66 IU/liter | s-TG (serum triglyceride) ([1]; 200 mg/kg oral): 28.8 ± 5.0 mg/dL | s-TG (serum triglyceride) ([1]; 400 mg/kg oral): 36.1 ± 7.6 mg/dL | LDH (lactate dehydrogenase) [1, 3]: 4873 ± 973 Wrobrewski units | s-GOT [1, 3]: 677 ± 219 IU/liter | s-GPT [1, 3]: 262 ± 89 IU/liter | LDH (lactate dehydrogenase) [1, 4]: 3722 ± 595 Wrobrewski units | s-GOT [1, 4]: 438 ± 131 IU/liter | s-GPT [1, 4]: 133 ± 39 IU/liter | s-TG (serum triglyceride) [1, 4]: 53.9 ± 10.4 mg/dL | effect on acetaminophen-induced changes in s-GOT, s-GPT, s-LDH and s-TG ([1]; 200, 400 or 800 mg/kg oral): dose-dependently suppressed the increases in s-GOT, s-GPT and s-LDH as well as the decrease in s-TG | blood coagulation inhibiting activity (blood coagulation): blood coagulation inhibiting | platelet aggregation inhibiting activity (platelet aggregation): platelet aggregation inhibiting | antiinflammatory and/or antiallergic activity [2]: antiinflammatory and/or antiallergic activity

Reference: patent US5081149A, “Antihepatopathic method” (Senju Pharmaceutical Co., Ltd., priority 1989, dated 1992)
